According to patent publication US7078403B1, “Antiviral agents” (Biota Scientific Management Pty Ltd., priority 1999, dated 2006):
In brackets after ≈: the same amount, converted by molar mass. Read-outs that look alike come from different tables or passages of the source. One block for each molecule: values may come before it.

How the values were obtained:
[1] = test system: Rhinovirus Type 14; type: cell-based, human rhinovirus; settings: for EC50: Enterovirus
[2] = test system: HRV type 2; assay: Inhibition of viral cytopathic effect (CPE), visual scoring or neutral red, HRV type 2 in KB cells; type: cell-based, human rhinovirus; settings: for Activity on Rhinovirus Type 2 EC50: HRV type 2 in KB cells, CPE inhibition; for Activity on Rhinovirus Type 2 SI: selectivity index = CC50 or MTC divided by EC50, HRV type 2, KB cells
[3] = test system: HRV type 1A; assay: Inhibition of viral cytopathic effect (CPE), visual scoring or neutral red, HRV type 1A in MRC-5 cells; type: cell-based, human rhinovirus; settings: for Activity on Rhinovirus Type 1A EC50: HRV type 1A in MRC-5 cells; for Activity on Rhinovirus Type 1A EC50 / EC50: CPE inhibition; for Activity on Rhinovirus Type 1A SI: selectivity index = CC50 or MTC divided by EC50, HRV type 1A, MRC-5 cells; for EC50: Enterovirus, MRC5, HRV type 1A in MRC-5 cells, read-out: Activity on Rhinovirus Type 1A EC50
[4] = test system: human embryo lung (MRC-5) cells; assay: Cytotoxicity (CC50 or MTC) in uninfected MRC-5 cells; settings: unit not given
[5] = test system: human embryo lung (MRC-5) cells
[6] = in vitro; settings: mammalian cell culture (cell line not stated)
[7] = test system: Coxsackie A21; assay: Activity on Coxsackie A21 in mammalian cell culture assay; type: cell-based
[8] = test system: Enterovirus 70; assay: Activity on Enterovirus 70 in mammalian cell culture assay; type: cell-based; settings: Enterovirus D
[9] = HRV14, HRV-14, read-out: Activity on Rhinovirus Type 14 EC50

- Activity on Rhinovirus Type 1A MTC [5]: >1
SMILES: CCON=Cc1ccc(OCCC2CCN(c3ccc(C=O)nn3)CC2)cc1 [Compound 128, 4-(2-[1-(6-Formyl-3-pyridazinyl)-4-piperidinyl]ethoxy)benzaldehyde O-ethyloxime]
- EC50 [3]: 0.063 µg/mL (≈ 0.165 µM)
- Activity on Rhinovirus Type 1A SI [3]: >15

- EC50 [1, 9]: 0.00095 µg/mL (≈ 0.00254 µM)
SMILES: CCO/N=C/c1ccc(OCCC2CCN(c3nnc(C)s3)CC2)cc1 [Compound 158]
- CC50 [6]: > 0.5 µg/mL

- EC50 [1, 9]: 0.0348 µg/mL (≈ 0.0923 µM)
SMILES: CCO/N=C/c1ccc(OCCCCCN(C)c2ccc(Cl)nn2)cc1 [Compound 161]
- CC50 [6]: > 0.5 µg/mL

- Activity on Rhinovirus Type 14 EC50 ([1]; HRV-14): 0.0032 µg/mL
SMILES: CCO/N=C/c1ccc(OCCC2CCN(c3ccc(C)nn3)CC2)cc1C [Compound 188]

- Activity on Rhinovirus Type 14 EC50 ([1]; HRV-14): 0.038 µg/mL
SMILES: CCO/N=C/c1ccc(OCCCCN(C)c2ccc(Cl)nn2)cc1 [Compound 195]

- Activity on Rhinovirus Type 14 EC50 ([1]; HRV-14): 0.0424 µg/mL
SMILES: CCON=Cc1ccc(OCCC2CCN(c3cccc(C)n3)CC2)cc1 [Compound 196]

- Activity on Rhinovirus Type 14 EC50 ([1]; HRV-14): 0.0402 µg/mL
SMILES: CO/N=C/c1ccc(OCCC2CCN(c3cncc(Cl)n3)CC2)cc1 [Compound 199]

- Activity on Rhinovirus Type 14 EC50 ([1]; HRV-14): 0.021 µg/mL
SMILES: CO/N=C/c1ccc(OCCC2CCN(c3nc4ccccc4o3)CC2)cc1 [Compound 200]

- Activity on Rhinovirus Type 14 EC50 ([1]; HRV-14): 0.0261 µg/mL
SMILES: CCO/N=C/c1ccc(OCCC2CCN(c3nc4ccccc4o3)CC2)cc1 [Compound 201]

- Activity on Rhinovirus Type 14 EC50 ([1]; HRV-14): 0.060 µg/mL
SMILES: CCO/N=C/c1ccc(OCCC2CCN(c3nc(OC)nc(OC)n3)CC2)cc1 [Compound 203]

- Activity on Rhinovirus Type 14 EC50 ([1]; HRV-14): 0.0554 µg/mL
SMILES: CCc1cnc(N2CCC(CCOc3ccc(/C=N/OC)cc3)CC2)nc1 [Compound 204]

- Activity on Rhinovirus Type 14 EC50 ([1]; HRV-14): 0.0638 µg/mL
SMILES: CCO/N=C/c1ccc(OCCC2CCN(c3ncc(CC)cn3)CC2)cc1 [Compound 205]

- Activity on Rhinovirus Type 14 EC50 ([1]; HRV-14): 0.0233 µg/mL
SMILES: CO/N=C/c1ccc(OCCC2CCN(c3nc4ccccc4s3)CC2)cc1 [Compound 206]

- Activity on Rhinovirus Type 14 EC50 ([1]; HRV-14): 0.0157 µg/mL
SMILES: CCO/N=C/c1ccc(OCCCCCOc2ccc(Cl)nn2)cc1 [Compound 209]

- Activity on Rhinovirus Type 14 EC50 ([1]; HRV-14): 0.0107 µg/mL
SMILES: CCO/N=C/c1ccc(OCCC2CCN(c3cc(C)c(Cl)nn3)CC2)cc1 [Compound 212]

Second part, the molecule before the results:

SMILES: CCON=Cc1ccc(OCCC2CCN(c3ccc(Cl)nn3)CC2)c(OC)c1 [Compound 5]
- Activity on Rhinovirus Type 14 EC50 ([1]; HRV-14): 0.0077 µg/mL
- Activity on Rhinovirus Type 2 EC50 [2]: 0.009 µg/mL
- Activity on Rhinovirus Type 2 SI [2]: >111
- Activity on Rhinovirus Type 1A EC50 [3]: <0.0032 µg/mL
- Activity on Rhinovirus Type 1A SI [3]: >312
- Activity on Rhinovirus Type 1A MTC [4]: >1

SMILES: CON=Cc1ccc(OCCC2CCN(c3ccc(C)nn3)CC2)cc1 [Compound 7]
- Activity on Rhinovirus Type 14 EC50 ([1]; HRV-14): 0.0068 µg/mL
- Activity on Rhinovirus Type 2 EC50 [2]: 0.15 µg/mL
- Activity on Rhinovirus Type 2 SI [2]: >7
- Activity on Rhinovirus Type 1A EC50 [3]: <0.0032 µg/mL
- Activity on Rhinovirus Type 1A SI [3]: >312
- Activity on Rhinovirus Type 1A MTC [4]: >1

SMILES: CON=Cc1ccc(OCCC2CCN(c3ccc(Cl)nn3)CC2)cc1 [Compound 8]
- Activity on Rhinovirus Type 14 EC50 ([1]; HRV-14): 0.0072 µg/mL
- Activity on Rhinovirus Type 2 EC50 [2]: 0.03 µg/mL
- Activity on Rhinovirus Type 2 SI [2]: >33
- Activity on Rhinovirus Type 1A EC50 [3]: <0.0032 µg/mL
- Activity on Rhinovirus Type 1A SI [3]: >312
- Activity on Rhinovirus Type 1A MTC [4]: >1

SMILES: CCCON=Cc1ccc(OCCC2CCN(c3ccc(Cl)nn3)CC2)cc1 [Compound 11]
- Activity on Rhinovirus Type 14 EC50 ([1]; HRV-14): 0.0077 µg/mL
- Activity on Rhinovirus Type 2 EC50 [2]: 0.004 µg/mL
- Activity on Rhinovirus Type 2 SI [2]: >250
- Activity on Rhinovirus Type 1A EC50 [3]: <0.0032 µg/mL
- Activity on Rhinovirus Type 1A SI [3]: >312
- Activity on Rhinovirus Type 1A MTC [4]: >1

SMILES: C=CCON=Cc1ccc(OCCC2CCN(c3ccc(Cl)nn3)CC2)cc1 [Compound 13]
- Activity on Rhinovirus Type 14 EC50 ([1]; HRV-14): 0.0078 µg/mL
- Activity on Rhinovirus Type 2 EC50 [2]: 0.006 µg/mL
- Activity on Rhinovirus Type 2 SI [2]: 83
- Activity on Rhinovirus Type 1A EC50 [3]: <0.0032 µg/mL
- Activity on Rhinovirus Type 1A SI [3]: >312
- Activity on Rhinovirus Type 1A MTC [4]: >1

SMILES: CON=Cc1ccc(OCCC2CCN(c3ccc(Cl)nn3)CC2)c(OC)c1 [Compound 33]
- Activity on Rhinovirus Type 14 EC50 ([1]; HRV-14): 0.0138 µg/mL
- Activity on Rhinovirus Type 2 EC50 [2]: 0.04 µg/mL
- Activity on Rhinovirus Type 2 SI [2]: >25
- Activity on Rhinovirus Type 1A EC50 [3]: 0.014 µg/mL
- Activity on Rhinovirus Type 1A SI [3]: >72.4
- Activity on Rhinovirus Type 1A MTC [4]: >1

SMILES: CCON=Cc1ccc(OCCC2CCN(c3ccc(Cl)nn3)CC2)c(C)c1 [Compound 42]
- Activity on Rhinovirus Type 14 EC50 ([1]; HRV-14): 0.0111 µg/mL
- Activity on Rhinovirus Type 2 EC50 [2]: 0.006 µg/mL
- Activity on Rhinovirus Type 2 SI [2]: >167
- Activity on Rhinovirus Type 1A EC50 [3]: 0.006 µg/mL
- Activity on Rhinovirus Type 1A SI [3]: >177.8
- Activity on Rhinovirus Type 1A MTC [4]: >1

SMILES: CON=Cc1ccc(OCCC2CCN(c3ccc(Cl)nn3)CC2)c(C)c1 [Compound 44]
- Activity on Rhinovirus Type 14 EC50 ([1]; HRV-14): 0.0194 µg/mL
- Activity on Rhinovirus Type 2 EC50 [2]: 0.026 µg/mL
- Activity on Rhinovirus Type 2 SI [2]: >38
- Activity on Rhinovirus Type 1A EC50 [3]: <0.003 µg/mL
- Activity on Rhinovirus Type 1A SI [3]: >312
- Activity on Rhinovirus Type 1A MTC [4]: >1

SMILES: CCON=Cc1ccc(OCCC2CCN(c3ccc(C)nn3)CC2)c(C)c1 [Compound 51]
- Activity on Rhinovirus Type 14 EC50 ([1]; HRV-14): 0.0093 µg/mL
- Activity on Rhinovirus Type 1A EC50 [3]: <0.003 µg/mL
- Activity on Rhinovirus Type 1A SI [3]: >207.3
- Activity on Rhinovirus Type 1A MTC [4]: 0.663

SMILES: CON=Cc1ccc(OCCC2CCN(c3ccc(C)nn3)CC2)c(C)c1 [Compound 52]
- Activity on Rhinovirus Type 14 EC50 ([1]; HRV-14): 0.0054 µg/mL
- Activity on Rhinovirus Type 1A EC50 [3]: <0.003 µg/mL
- Activity on Rhinovirus Type 1A SI [3]: >312
- Activity on Rhinovirus Type 1A MTC [4]: >1

SMILES: CCO/N=C/c1cc(C)c(OCCCc2cc(-c3ccccc3)no2)c(C)c1 [Compound 127, 3,5-Dimethyl-[4-{3-(3-Phenyl-5-isoxazolyl)propoxy)]benzaldehyde O-ethyloxime]
- Activity on Rhinovirus Type 1A MTC [5]: >1
- EC50 [3]: 0.329 µg/mL (≈ 0.869 µM)
- Activity on Rhinovirus Type 1A SI [3]: >3

SMILES: CCON=Cc1ccc(OCCC2CCN(c3ccc(C)nn3)CC2)c(O)c1 [Compound 146]
- Activity on Rhinovirus Type 14 EC50 ([1]; HRV-14): 0.0084 µg/mL
- Activity on Rhinovirus Type 1A EC50 [3]: 0.051 µg/mL
- Activity on Rhinovirus Type 1A SI [3]: >19
- Activity on Rhinovirus Type 1A MTC [4]: >1

SMILES: CCO/N=C/c1csc(OCCC2CCN(c3ccc(C)nn3)CC2)n1 [Compound 155, 2-(1-(6 methyl-3-pyridazinyl)-4-piperidinylethoxy)-thiazole-4-carboxaldehyde O-ethyl oxime]
- CC50 [6]: > 0.5 µg/mL
- EC50 [1, 9]: 0.0138 µg/mL (≈ 0.0368 µM)

SMILES: CCO/N=C/c1c(C)cc(OCCC2CCN(c3ccc(C)nn3)CC2)cc1C [Compound 185]
- Activity on Rhinovirus Type 14 EC50 ([1]; HRV-14): 0.0697 µg/mL

SMILES: CO/N=C/c1c(C)cc(OCCC2CCN(c3ccc(C)nn3)CC2)cc1C [Compound 186]
- Activity on Rhinovirus Type 14 EC50 ([1]; HRV-14): 0.0349 µg/mL

SMILES: CCO/N=C/c1ccc(OCCC2CCN(c3ccc(C)nn3)CC2)cc1OC [Compound 187]
- Activity on Rhinovirus Type 14 EC50 ([1]; HRV-14): 0.0103 µg/mL

SMILES: CO/N=C/c1ccc(OCCC2CCN(c3ccc(C)nn3)CC2)cc1C [Compound 189]
- Activity on Rhinovirus Type 14 EC50 ([1]; HRV-14): 0.0011 µg/mL

SMILES: CCON=Cc1cc(C)c(OCCC2CCN(c3ccc(C)nn3)CC2)cc1C [Compound 190]
- Activity on Rhinovirus Type 14 EC50 ([1]; HRV-14): 0.0593 µg/mL

SMILES: CON=Cc1cc(C)c(OCCC2CCN(c3ccc(C)nn3)CC2)cc1C [Compound 191]
- Activity on Rhinovirus Type 14 EC50 ([1]; HRV-14): 0.0256 µg/mL

SMILES: CCON=Cc1ccc(OCCC2CCN(c3ccc(C)nn3)CC2)c(C)c1C [Compound 192]
- Activity on Rhinovirus Type 14 EC50 ([1]; HRV-14): 0.0258 µg/mL

SMILES: CON=Cc1ccc(OCCC2CCN(c3ccc(C)nn3)CC2)c(C)c1C [Compound 193]
- Activity on Rhinovirus Type 14 EC50 ([1]; HRV-14): 0.0308 µg/mL

SMILES: CO/N=C/c1ccc(OCCC2CCN(c3nc(OC)nc(OC)n3)CC2)cc1 [Compound 202]
- Activity on Rhinovirus Type 14 EC50 ([1]; HRV-14): 0.0593 µg/mL

SMILES: CC(C)S(=O)(=O)n1c(N)nc2ccc(/C(=N/O)c3ccccc3)cc21 [Enviroxime]
- EC50 [7]: 0.39 µg/mL (≈ 1.09 µM)
- Activity on Rhinovirus Type 1A MTC [5]: 0.49
- EC50 [3]: 0.006 µg/mL (≈ 0.0167 µM)
- Activity on Rhinovirus Type 1A SI [3]: 75.91
- EC50 [8]: 0.21 µg/mL (≈ 0.586 µM)

SMILES: Cc1cc(CCCOc2c(C)cc(-c3noc(C(F)(F)F)n3)cc2C)on1 [Pleconaril, reference compound]
- CC50 [6]: > 0.1 µg/mL
- EC50 ([1]; HRV14, read-out: Activity on Rhinovirus Type 14 EC50): 0.0608 µg/mL (≈ 0.159 µM)
